# Experimental data from ChEMBL document CHEMBL1201862, “PubChem BioAssay data set” (2004).
#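 Cultured in 96-well plates, cells were exposed to test compound for 48 hours across five concentrations. Abbreviation: GI50, concentration required for 50% inhibition of growth.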 Activity calls are given as the source filed them. No stated cut-off is given here; in the data, active = GI50 up to about 1.1 µM and inactive = higher.
# Columns and labels:
# Assay in all cases: growth of human tumour cells (NCI), 48 h
# MDA-MB-435 = tested on: MDA-MB-435
# HCT-116 = tested on: HCT-116
# KM12 = tested on: KM12
# OVCAR-4 = tested on: OVCAR-4
# SNB-75 = tested on: SNB-75
# EKVX = tested on: EKVX
# CAKI-1 = tested on: CAKI-1
# K562 = tested on: K562
# Malme-3M = tested on: Malme-3M
# HCC 2998 = tested on: HCC 2998
# HOP-62 = tested on: HOP-62
# SF-268 = tested on: SF-268
# M14 = tested on: M14
# IGROV-1 = tested on: IGROV-1
# SF-295 = tested on: SF-295
# MDA-N = tested on: MDA-N
# RXF 393 = tested on: RXF 393
# OVCAR-3 = tested on: OVCAR-3
# TK-10 = tested on: TK-10
# HT-29 = tested on: HT-29
# SF-539 = tested on: SF-539
# UO-31 = tested on: UO-31
# NCI-H522 = tested on: NCI-H522
# SN12C = tested on: SN12C
# CCRF-CEM = tested on: CCRF-CEM
# SR = tested on: SR
# SK-MEL-5 = tested on: SK-MEL-5
# 786-0 = tested on: 786-0
# SK-MEL-28 = tested on: SK-MEL-28
# NCI-H226 = tested on: NCI-H226
# MCF7 = tested on: MCF7
# UACC-257 = tested on: UACC-257
# ACHN = tested on: ACHN
# U-251 = tested on: U-251
# PC-3 = tested on: PC-3
# MOLT-4 = tested on: MOLT-4
# SK-MEL-2 = tested on: SK-MEL-2
# NCI-H23 = tested on: NCI-H23
# HCT-15 = tested on: HCT-15
# UACC-62 = tested on: UACC-62
# A549 = tested on: A549
# NCI-H460 = tested on: NCI-H460
# LOX IMVI = tested on: LOX IMVI
# SW-620 = tested on: SW-620
# Hs-578T = tested on: Hs-578T
# NCI/ADR-RES = tested on: NCI/ADR-RES
# OVCAR-5 = tested on: OVCAR-5
# T47D = tested on: T47D
# OVCAR-8 = tested on: OVCAR-8
# BT-549 = tested on: BT-549
# MDA-MB-231 = tested on: MDA-MB-231
# SNB-19 = tested on: SNB-19
# RPMI-8226 = tested on: RPMI-8226
# HL-60 = tested on: HL-60
# A498 = tested on: A498
# COLO 205 = tested on: COLO 205
# DU-145 = tested on: DU-145
# SK-OV-3 = tested on: SK-OV-3
# HOP-92 = tested on: HOP-92
structure (smiles),measurement,setting,value
CC[n+]1[b-](C(C)(C)C)n(/N=C(\C)C(C)(C)C)[b-](C(C)(C)C)[n+]1CC,GI50,MDA-MB-435,> 100 µM (inactive)
same,GI50,HCT-116,> 100 µM (inactive)
same,GI50,KM12,> 100 µM (inactive)
same,GI50,OVCAR-4,> 100 µM (inactive)
same,GI50,SNB-75,> 100 µM (inactive)
same,GI50,EKVX,> 100 µM (inactive)
same,GI50,CAKI-1,> 100 µM (inactive)
same,GI50,K562,71.8 µM (inactive)
same,GI50,Malme-3M,> 100 µM (inactive)
same,GI50,HCC 2998,> 100 µM (inactive)
same,GI50,HOP-62,> 100 µM (inactive)
same,GI50,SF-268,> 100 µM (inactive)
same,GI50,M14,> 100 µM (inactive)
same,GI50,IGROV-1,> 100 µM (inactive)
same,GI50,SF-295,> 100 µM (inactive)
same,GI50,MDA-N,> 10 µM (inactive)
same,GI50,RXF 393,> 100 µM (inactive)
same,GI50,OVCAR-3,> 100 µM (inactive)
same,GI50,TK-10,> 100 µM (inactive)
same,GI50,HT-29,> 100 µM (inactive)
same,GI50,SF-539,> 100 µM (inactive)
same,GI50,UO-31,> 100 µM (inactive)
same,GI50,NCI-H522,> 100 µM (inactive)
same,GI50,SN12C,> 100 µM (inactive)
same,GI50,CCRF-CEM,> 100 µM (inactive)
same,GI50,SR,23.6 µM (inactive)
same,GI50,SK-MEL-5,> 100 µM (inactive)
same,GI50,786-0,> 100 µM (inactive)
same,GI50,SK-MEL-28,> 100 µM (inactive)
same,GI50,NCI-H226,72.9 µM (inactive)
same,GI50,MCF7,> 100 µM (inactive)
same,GI50,UACC-257,> 100 µM (inactive)
same,GI50,ACHN,> 100 µM (inactive)
same,GI50,U-251,> 100 µM (inactive)
same,GI50,PC-3,> 100 µM (inactive)
same,GI50,MOLT-4,> 100 µM (inactive)
same,GI50,SK-MEL-2,> 100 µM (inactive)
same,GI50,NCI-H23,> 100 µM (inactive)
same,GI50,HCT-15,> 100 µM
same,GI50,UACC-62,> 100 µM (inactive)
same,GI50,A549,> 100 µM (inactive)
same,GI50,NCI-H460,> 100 µM (inactive)
same,GI50,LOX IMVI,> 100 µM (inactive)
same,GI50,SW-620,> 100 µM (inactive)
same,GI50,Hs-578T,> 100 µM (inactive)
same,GI50,NCI/ADR-RES,87.1 µM (inactive)
same,GI50,OVCAR-5,> 100 µM (inactive)
same,GI50,T47D,> 100 µM (inactive)
same,GI50,OVCAR-8,> 100 µM (inactive)
same,GI50,BT-549,> 100 µM (inactive)
same,GI50,MDA-MB-231,> 100 µM (inactive)
same,GI50,SNB-19,> 100 µM (inactive)
O=c1[nH]c2nccnc2c2c([N+](=O)[O-])cccc12,GI50,MDA-MB-435,> 100 µM (inactive)
same,GI50,HCT-116,> 100 µM (inactive)
same,GI50,KM12,> 100 µM (inactive)
same,GI50,OVCAR-4,> 100 µM (inactive)
same,GI50,SNB-75,> 100 µM (inactive)
same,GI50,EKVX,> 100 µM (inactive)
same,GI50,K562,> 100 µM (inactive)
same,GI50,Malme-3M,> 100 µM (inactive)
same,GI50,HCC 2998,> 100 µM (inactive)
same,GI50,HOP-62,> 100 µM (inactive)
same,GI50,SF-268,> 100 µM (inactive)
same,GI50,M14,> 100 µM (inactive)
same,GI50,IGROV-1,> 100 µM (inactive)
same,GI50,SF-295,> 100 µM (inactive)
same,GI50,MDA-N,> 100 µM (inactive)
same,GI50,RXF 393,58.2 µM (inactive)
same,GI50,OVCAR-3,> 100 µM (inactive)
same,GI50,RPMI-8226,> 100 µM (inactive)
same,GI50,HL-60,> 100 µM (inactive)
same,GI50,TK-10,81.8 µM (inactive)
same,GI50,HT-29,> 100 µM (inactive)
same,GI50,SF-539,> 100 µM (inactive)
same,GI50,UO-31,44.1 µM (inactive)
same,GI50,NCI-H522,49.9 µM (inactive)
same,GI50,SN12C,> 100 µM (inactive)
same,GI50,CCRF-CEM,> 100 µM (inactive)
same,GI50,SR,> 100 µM (inactive)
same,GI50,SK-MEL-5,88.3 µM (inactive)
same,GI50,786-0,> 100 µM (inactive)
same,GI50,SK-MEL-28,> 100 µM (inactive)
same,GI50,NCI-H226,95.5 µM (inactive)
same,GI50,MCF7,> 100 µM (inactive)
same,GI50,ACHN,> 100 µM (inactive)
same,GI50,U-251,> 100 µM (inactive)
same,GI50,PC-3,78.9 µM (inactive)
same,GI50,MOLT-4,> 100 µM (inactive)
same,GI50,A498,> 100 µM (inactive)
same,GI50,SK-MEL-2,> 100 µM (inactive)
same,GI50,COLO 205,> 100 µM (inactive)
same,GI50,NCI-H23,> 100 µM (inactive)
same,GI50,HCT-15,> 100 µM
same,GI50,UACC-62,> 100 µM (inactive)
same,GI50,A549,> 100 µM (inactive)
same,GI50,NCI-H460,> 100 µM (inactive)
same,GI50,LOX IMVI,81.8 µM (inactive)
same,GI50,SW-620,> 100 µM (inactive)
same,GI50,DU-145,> 100 µM (inactive)
same,GI50,Hs-578T,55.5 µM (inactive)
same,GI50,NCI/ADR-RES,> 100 µM (inactive)
same,GI50,OVCAR-5,> 100 µM (inactive)
same,GI50,T47D,20.5 µM (inactive)
same,GI50,OVCAR-8,> 100 µM (inactive)
same,GI50,BT-549,65.2 µM (inactive)
same,GI50,SNB-19,> 100 µM (inactive)
same,GI50,SK-OV-3,> 100 µM (inactive)
CCOC(=O)O/N=C1/C(=C2/C(=O)Nc3ccccc32)Nc2ccccc21,GI50,MDA-MB-435,4.48 µM (inactive)
same,GI50,HCT-116,3.03 µM (inactive)
same,GI50,KM12,0.192 µM (active)
same,GI50,OVCAR-4,6.4 µM (inactive)
same,GI50,SNB-75,3.4 µM (inactive)
same,GI50,EKVX,2.54 µM (inactive)
same,GI50,CAKI-1,1.86 µM (inactive)
same,GI50,K562,12.2 µM (inactive)
same,GI50,Malme-3M,10 µM (inactive)
same,GI50,HCC 2998,2.73 µM (inactive)
same,GI50,HOP-62,6.81 µM (inactive)
same,GI50,SF-268,5.73 µM (inactive)
same,GI50,M14,10.3 µM (inactive)
same,GI50,IGROV-1,4.34 µM (inactive)
same,GI50,SF-295,8.73 µM (inactive)
same,GI50,MDA-N,3.91 µM (inactive)
same,GI50,RXF 393,1.24 µM (inactive)
same,GI50,OVCAR-3,2.15 µM (inactive)
same,GI50,RPMI-8226,10.8 µM (inactive)
same,GI50,HL-60,4.95 µM (inactive)
same,GI50,TK-10,5.35 µM (inactive)
same,GI50,HT-29,10.1 µM (inactive)
same,GI50,UO-31,3.65 µM (inactive)
same,GI50,NCI-H522,8.53 µM (inactive)
same,GI50,SN12C,4.41 µM (inactive)
same,GI50,CCRF-CEM,2.87 µM (inactive)
same,GI50,SR,3.61 µM (inactive)
same,GI50,SK-MEL-5,2.37 µM (inactive)
same,GI50,786-0,5.92 µM (inactive)
same,GI50,SK-MEL-28,10.9 µM (inactive)
same,GI50,MCF7,3.69 µM (inactive)
same,GI50,UACC-257,10.2 µM (inactive)
same,GI50,ACHN,4.41 µM (inactive)
same,GI50,U-251,9.14 µM (inactive)
same,GI50,MOLT-4,3.74 µM (inactive)
same,GI50,A498,1.47 µM (inactive)
same,GI50,HOP-92,22.3 µM (inactive)
same,GI50,SK-MEL-2,2.29 µM (inactive)
same,GI50,COLO 205,15.5 µM (inactive)
same,GI50,NCI-H23,4.47 µM (inactive)
same,GI50,HCT-15,2.7 µM
same,GI50,UACC-62,8.32 µM (inactive)
same,GI50,A549,4.56 µM (inactive)
same,GI50,NCI-H460,3.13 µM (inactive)
same,GI50,LOX IMVI,4.8 µM (inactive)
same,GI50,SW-620,5.21 µM (inactive)
same,GI50,DU-145,2.87 µM (inactive)
same,GI50,Hs-578T,2.9 µM (inactive)
same,GI50,NCI/ADR-RES,4.83 µM (inactive)
same,GI50,OVCAR-5,16.5 µM (inactive)
same,GI50,T47D,3.93 µM (inactive)
same,GI50,OVCAR-8,5.83 µM (inactive)
same,GI50,BT-549,7.31 µM (inactive)
same,GI50,MDA-MB-231,11.6 µM (inactive)
same,GI50,SNB-19,18.7 µM (inactive)
same,GI50,SK-OV-3,1.59 µM (inactive)
